Where two headings read alike, the source gives them in different places.
How the values were obtained:
[1] = test system: Orlando insecticide-susceptible strain of Ae. aegypti (female mosquitoes); assay: Glass tube spatial repellency assay; assay type: in vivo, Aedes aegypti; set-up: 1 h EC50-OR (repellency): unit not given here; settings: for 15 min repellency ratio / 30 min repellency ratio / 1 hr repellency ratio: horizontal tube, 0.5=0% repellency, 0=100% repellency; for 1 h EC50-OR (repellency): OR strain
Procedure: (§1) The following assay was conducted according to the procedures of Jiang et al., 2019 (Jiang S., Yang L, and Bloomquist J (2019) High-throughput screening method for evaluating spatial repellency and vapor toxicity to mosquitoes. Med. Vet. Entomol.). For assessing behavioral repellency (FIG. 1), sixteen female Aedes aegypti mosquitoes were transferred to a glass tube (12.5 cm long, 2.5 cm outer diameter) with the ends covered with netting. Metofluthrin, bifenthrin, permethrin, pyrethrum, transfluthrin, deltamethrin, esfenvalerate, metofluthrin acid, bifenthrin acid, phenothrin acid, transchryanthemic acid, transfluthrin acid, deltamethrin acid, and fenvalerate acid were each dissolved in 1 mL of acetone and serial dilutions ranging from 30-0.01 μg/ml were made. Circular filter papers (5 cm^2) were saturated with 50 μL of each concentration and allowed 10 min for solvent evaporation. The filter papers were then placed in clear conical polypropylene caps and fixed to the end of the glass tubes. The netting prevented mosquito contact with the filter paper. Tubes were then aligned with a mark denoting the midline and the proportion of mosquitoes on the chemically treated side was scored at 15, 30, and 60 min. At the end of the test, the tube was placed in a cage and the ability of the mosquitoes to fly out of the tube was assessed for 30 min. […] This post-test evaluated whether any non-responding mosquitoes (not repelled) was due to intoxication or disorientation from the test chemical. For vapor toxicity, the assay was identical, except that mosquitoes were kept in the tube for 24 hr without the post-test at 1 hr, and the mortality was recorded at 24 hr.

[2] = test system: insecticide-susceptible Aedes aegypti (Orlando strain) females; assay: Glass tube vapor toxicity assay (24 hr mortality); settings: for 24 hr mort (%): horizontal tube; for mortality at 100 µg/cm2: Aedes aegypti
Procedure: as §1
Synergism ratio (SR)=LC50 pyrethroid/LC50 pyrethroid+EO.

[3] = test system: pyrethroid-resistant Puerto Rico (PR) strain of Ae. aegypti; assay: Glass tube spatial repellency assay, resistant strain; assay type: in vivo, Aedes aegypti; set-up: 1 h EC50-PR (repellency): unit not given here; settings: compound alone; for 1 h EC50-PR (repellency): PR strain; for RR (PR EC50/OR EC50): repellency resistance ratio
Procedure: as §1
EC50 values were calculated from non-linear regression to a four parameter logistic equation (Prism, GraphPad Software, San Diego, Calif.) of the curves shown in FIG. 4. RR=resistance ratio. NA=data not yet available.

[4] = test system: pyrethroid-resistant Puerto Rico strain of Ae. aegypti; assay: Glass tube vapor toxicity assay, resistant strain; assay type: in vivo, Aedes aegypti; settings: for resistance ratio RR, vapor toxicity: pyrethroid alone, Puerto Rico vs Orlando
Source text: The netting prevented mosquito contact with the filter paper.
The vapor toxicity of metofluthrin alone and in combination with citronella oil (CO) on susceptible Orlando and pyrethroid-resistant Puerto Rico strains of Ae. aegypti was investigated. The results are provided in Table 10 and in FIGS. 26 and 27. […] Synergism ratio (SR)=LC50 metofluthrin/LC50 metofluthrin+citronella. […] Resistance ratio (RR)=LC50 metofluthrin[…] on Puerto Rico/LC50 metofluthrin on Orlando.
Next, the vapor toxicity of empenthrin applied to two strains of Aedes aegypti, the pyrethroid-susceptible Orlando and pyrethroid-resistant Puerto Rico strain, was investigated. Empenthrin was applied alone and in combination with citronella oil (100 μg/cm^2, a nontoxic exposure). The RR for empenthrin alone was 5.7-fold.

female Ae. aegypti = assay: Human arm bite protection assay; assay type: in vivo, Aedes aegypti
Procedure: A human bite protection assay was performed according to see if the repellency observed in glass tubes extended to bite protection. The assay was run in accordance with that of Tsikolia et al. (Tsikolia M, Bernier UR, Coy M, Chalaire K, Becnel J, Agramonte N, Tabanca N, Wedge D, Clark G, Linthicum K, Swale D, and J. R. Bloomquist J (2013) Insecticidal and fungicidal properties of novel trifluoromethylphenyl amides. Pestic. Biochem. Physiol. 107, 138-147). Treated cloth patches were worn by human volunteers and the number of blood fed mosquitoes was determined after 1 min spent in a cage with 500 (±10%) female Ae. aegypti. Minimum Effective Dosage (MED in mg/cm^2) is the minimum amount required to prevent 99% of bites in three human volunteers (UF IRB #201602334). Synergist ratio (SR)=MED chemical alone/MED chemical+TFA (0.047 mg/cm^2) or TCA (0.094 mg/cm^2).

[5] = 0.25 h, read-out: 15 min % mortality
[6] = 0.5 h, read-out: 30 min % mortality
[7] = 1 h, read-out: 1 hr % mortality

## O=Cc1cccc(C(=O)O)c1 [3-formyl benzoic acid]
[1]; 10 μg/cm^2
  15 min repellency ratio: 0.50
  30 min repellency ratio: 0.47
  1 hr repellency ratio: 0.47
[1]; 100 μg/cm^2
  15 min repellency ratio: 0.53
  30 min repellency ratio: 0.56
  1 hr repellency ratio: 0.56
[2]; 10 μg/cm^2
  24 hr mort (%): 6.3%
[2]; 100 μg/cm^2
  24 hr mort (%): 9.4%

## CC=CC1C(C(=O)O)C1(C)C (centres unmarked) [MFA, metofluthrin acid]
[1]; compound alone, 1 hr
  1 h EC50-OR (repellency): 14
[3]
  1 h EC50-PR (repellency): 18
  RR (PR EC50/OR EC50): 1.3

## CC(C)[C@H](C(=O)O)c1ccc(Cl)cc1 [FVA, fenvalerate acid]
[3]
  RR (PR EC50/OR EC50): 1.7

## O=Cc1cccc(C=O)c1 [isophthalaldehdye]
[1]; 10 μg/cm^2
  15 min repellency ratio: 0.41
  30 min repellency ratio: 0.41
  1 hr repellency ratio: 0.41
[1]; 100 μg/cm^2
  15 min repellency ratio: 0.03
  30 min repellency ratio: 0.09
  1 hr repellency ratio: 0.06
[2]; 10 μg/cm^2
  24 hr mort (%): 40.6%
[2]; 100 μg/cm^2
  24 hr mort (%): 87.5%

## C#CC(OC(=O)C1C(C=C(C)C)C1(C)C)/C(C)=C/CC (centres unmarked) [empenthrin]
[4]; citronella oil 100 μg/cm^2, Puerto Rico strain
  effect of citronella oil on resistance to vapor toxicity: reversed resistance
[4]
  resistance ratio RR, vapor toxicity: 5.7

## trifluoromethoxybenzaldehyde
[1]; 10 μg/cm^2
  15 min repellency ratio: 0.38
  30 min repellency ratio: 0.38
  1 hr repellency ratio: 0.44
[1]; 100 μg/cm^2
  15 min repellency ratio: 0.31
  30 min repellency ratio: 0.31
  1 hr repellency ratio: 0.50
[2]; 10 μg/cm^2
  24 hr mort (%): 6.3%
[2]; 100 μg/cm^2
  24 hr mort (%): 0.0%

## CC1(C)C(C=C(Cl)C(F)(F)F)C1C(=O)O (centres unmarked) [BFA, bifenthrin acid]
[1]; compound alone, 1 hr
  1 h EC50-OR (repellency): 14
[3]
  1 h EC50-PR (repellency): 11
  RR (PR EC50/OR EC50): 0.8

## C/C=C/C1C(C(=O)OCc2c(F)c(F)c(COC)c(F)c2F)C1(C)C (centres unmarked) [Metofluthrin, reference compound]
[1]; 100 μg/cm^2, 1 hr exposure
  mortality in repellency screening: significant mortality
[3]
  RR (PR EC50/OR EC50): 60
[2]; in vivo
  synergism ratio of vapor toxicity, +citronella: 7.6
[2]; pyrethroid alone
  LC50 (24 h vapor toxicity): 0.84 μg/cm^2
[2]; with citronella, 24 h
  LC50 +citronella: 0.11 μg/cm^2
[4]; LC50 metofluthrin+CO on Puerto Rico/LC50 metofluthrin on Orlando
  resistance ratio RR, vapor toxicity, +citronella oil: 7.3
[4]
  resistance ratio RR, vapor toxicity: 50.7

## CC(C)=CC1C(C(=O)O)C1(C)C (centres unmarked) [PhenA, phenothrin acid]
[3]
  RR (PR EC50/OR EC50): 0.8

## O=Cc1cccc(O)c1 [3-hydroxybenzaldehyde]
[1]; 10 μg/cm^2
  15 min repellency ratio: 0.56
  30 min repellency ratio: 0.53
  1 hr repellency ratio: 0.56
[1]; 100 μg/cm^2
  15 min repellency ratio: 0.41
  30 min repellency ratio: 0.41
  1 hr repellency ratio: 0.56
[2]; 10 μg/cm^2
  24 hr mort (%): 21.9%
[2]; 100 μg/cm^2
  24 hr mort (%): 15.6%

## O=Cc1cccc(-c2ccccc2)c1 [biphenyl-3-carboxaldehyde]
[1]; 10 μg/cm^2
  15 min repellency ratio: 0.44
  30 min repellency ratio: 0.38
  1 hr repellency ratio: 0.38
[1]; 100 μg/cm^2
  15 min repellency ratio: 0.44
  30 min repellency ratio: 0.31
  1 hr repellency ratio: 0.19
[2]; 10 μg/cm^2
  24 hr mort (%): 50.0%
[2]; 100 μg/cm^2
  24 hr mort (%): 6.3%

## α, α, α-trifluoromethyltolualdehyde
[1]; 10 μg/cm^2
  15 min repellency ratio: 0.38
  30 min repellency ratio: 0.44
  1 hr repellency ratio: 0.31
[1]; 100 μg/cm^2
  15 min repellency ratio: 0.38
  30 min repellency ratio: 0.50
  1 hr repellency ratio: 0.63
[2]; 10 μg/cm^2
  24 hr mort (%): 0.0%
[2]; 100 μg/cm^2
  24 hr mort (%): 0.0%

## O=Cc1cccc(Cl)c1 [3-chlorobenzaldehyde]
[1]; 10 μg/cm^2
  15 min repellency ratio: 0.28
  30 min repellency ratio: 0.34
  1 hr repellency ratio: 0.41
[2]; 10 μg/cm^2
  24 hr mort (%): 31.3%
[2]; 100 μg/cm^2
  24 hr mort (%): 100.0%
[2]; [5]
  mortality at 100 µg/cm2: 50%
[2]; [6]
  mortality at 100 µg/cm2: 75%
[2]; [7]
  mortality at 100 µg/cm2: 100%

## C=Cc1cccc(C=O)c1 [3-vinylbenzaldehyde]
[1]; 10 μg/cm^2
  15 min repellency ratio: 0.50
  30 min repellency ratio: 0.50
  1 hr repellency ratio: 0.31
[1]; 100 μg/cm^2
  15 min repellency ratio: 0.19
  30 min repellency ratio: 0.25
  1 hr repellency ratio: 0.19
[2]; 10 μg/cm^2
  24 hr mort (%): 100.0%
[2]; 100 μg/cm^2
  24 hr mort (%): 6.3%

## CC(C)=C[C@@H]1[C@@H](C(=O)O)C1(C)C (relative stereo) [TCA, 1-R-trans-chrysanthemic acid]
[1]; TCA alone at 10 μg/cm^2
  repellency: 25%
[1]; applied as mixture with TFA (50 μg/cm^2), 1 hr
  repellency EC50 (+TFA): 1.3 μg/cm^2
[1]; compound alone, 1 hr
  repellency EC50: 20 μg/cm^2
[1]; repellency, TFA 50 μg/cm^2 as mixture
  synergist ratio SR (EC50 compound alone/EC50 compound+TFA): 15
[3]
  RR (PR EC50/OR EC50): 1.9
Female Ae. aegypti; as E30, volunteer one
  MED values Female 10: 0.375 mg/cm^2
Female Ae. aegypti; as E30, volunteer two
  MED values Female 9: 0.187 mg/cm^2
Female Ae. aegypti; mean of three human volunteers
  MED Mean: 0.312 mg/cm^2
Female Ae. aegypti; minimum amount preventing 99% of bites, treated cloth patch, 1 min in cage, mixtures with TFA 0.047 or TCA 0.094 mg/cm^2
  MED values Male 4: 0.375 mg/cm^2

## CC(C)(C)c1cccc(C=O)c1 [3-tert-butylbenzaldehyde]
[1]; 10 μg/cm^2
  15 min repellency ratio: 0.31
  30 min repellency ratio: 0.25
  1 hr repellency ratio: 0.31
[2]; 10 μg/cm^2
  24 hr mort (%): 6.3%
[2]; 100 μg/cm^2
  24 hr mort (%): 81.3%
[2]; [5]
  mortality at 100 µg/cm2: 96.9%
[2]; [6]
  mortality at 100 µg/cm2: 100%
[2]; [7]
  mortality at 100 µg/cm2: 100%

From patent publication US20220304307A1, “SYNERGISTIC MIXTURES FOR ARTHROPOD TOXICITY AND REPELLENCY” (University of Florida Research Foundation, Incorporated, priority 2019, published 2022)
